According to patent US12447136B2, “Use of (5R,7R,10R)-12,15-dioxo-α-selinene in the preparation of drugs” (KUNMING INSTITUTE OF BOTANY, CHINESE ACADEMY OF SCIENCES, priority 2020, dated 2025):

Tested on: MPP^+-induced PC12 cell injury
Assay: Protective effect on MPP+-induced PC12 cell injury (MTS cell viability)
Description: 1. PC12 poorly-differentiated cells were cultured in a medium containing Dulbecco's modified Eagle's medium (DMEM) high glucose+10% fetal bovine serum (FBS)+100 U/mL penicillin-streptomycin, in an incubator at 37° C. and 5% CO2.
2. When growing to 80% to 90%, the PC12 poorly-differentiated cells were subjected to trypsin digestion to obtain a cell suspension.
3. The cell suspension was aspirated into a 15 mL centrifuge tube, followed by centrifugation at 800 rpm for 5 min.
4. After the centrifugation, the centrifuge tube was sterilized with alcohol and placed into an ultra-clean bench, and a supernatant was poured into a waste liquid tank.
5. 5 mL of a new complete medium was added, followed by blowing the medium ten times by a pipette to disperse the cells as much as possible, wherein the blowing should not be performed by too large of a force.
6. 0.02 mL of the cell suspension was taken and added to a cell counting plate for counting.
7. The cell suspension was adjusted to have a cell concentration of 1×10^5 cells/mL, then added to a 96-well plate by 0.1 mL per well, and incubated in a cell incubator.
8. After 23 h, the original medium was aspirated, and a new medium (the formula of which was the same as that in the above step 1) was added; the compound to be tested was added; and 1 h later, MPP^+ was added (a final concentration of the MPP^+ in the system was 750 μM).
9. Experimental design: each group was designed and performed for 3 repetitions:
A blank group included only medium.
A model group (MPP^+) included medium and MPP^+ which was added with a final concentration of 750 μM.
A positive control group (vitamin E) included medium, vitamin E which was added with a final concentration of 0.2 μM, and MPP^+ which was subsequently added with a final concentration of 750 μM.
10. 24 h after adding the MPP^+, MTS was added; after 2 h, values were read for detection.

Compound	protective activity against MPP^+-induced PC12 cell injury (at concentrations of 1 μM and 2 μM (P<0.001))	protective effect on MPP^+-induced PC12 cell injury (screening in the MPP^+-induced PC12 cell injury model, no concentration stated)	Cell viability (%) (0.2 μM compound or VE + 750 μM MPP^+, PC12 cells, MTS 24 h after MPP^+)
C=C(C=O)[C@@H]1CC[C@@]2(C)CCC=C(C=O)[C@@H]2C1 [PFC-37, (5R,7R,10R)-12,15-dioxo-α-selinene]	significant protective activity	significant protective effect	–
vitamin E [reference compound]	–	–	75.70 ± 0.64 %
